pIC50: −log10 of the molar value. Where two headings read alike, the source gives them in different places.
How the values were obtained:
Format in all cases: biochemical
Caspase-10 = target: T1, Caspase-10 (Homo sapiens, UniProt Q92851); assay: Caspase-10 inhibitor screening assay (BioVision kit, AEVD-AFC); conditions: for inhibition at 10 µM: read-out: % Inhibition at 10 uM Casp10; for inhibition at 100 µM: read-out: % Inhibition at 100 uM Casp10
T1 construct: mixing the compounds with the respective active caspases; purchased BioVision K160-100
T1 sequence (Q92851 220-415 limits assumed): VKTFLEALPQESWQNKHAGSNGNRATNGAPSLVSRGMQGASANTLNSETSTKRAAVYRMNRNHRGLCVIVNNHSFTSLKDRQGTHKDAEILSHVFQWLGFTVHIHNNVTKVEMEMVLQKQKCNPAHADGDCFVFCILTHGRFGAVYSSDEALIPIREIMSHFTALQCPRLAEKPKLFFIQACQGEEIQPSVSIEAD
T1 sequence (Q92851 416-521 limits assumed): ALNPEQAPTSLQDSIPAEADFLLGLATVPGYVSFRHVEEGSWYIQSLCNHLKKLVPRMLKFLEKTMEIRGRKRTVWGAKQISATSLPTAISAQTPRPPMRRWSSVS
Procedure: (§1) The efficacy of an array of compounds as an inhibitor of the activity of Caspases 1 through 10 were assessed by using the respective Caspase Inhibitor Drug Screening Kits (Caspase-1 Catalog #: K151-100, Caspase-2 Catalog #: K152-100, Caspase-3 Catalog #: K153-100, Caspase-4 Catalog #: K154-100, Caspase-5 Catalog #: K155-100, Caspase-6 Catalog #: K156-100, Caspase-7 Catalog #: K157-100, Caspase-8 Catalog #: K158-100, Caspase-9 Catalog #: K159-100, Caspase-10 Catalog #: K160-100, BioVision) following the instructions of the manufacturer. […] Active caspases cleaved their respective synthetic substrates to release free AFC, which was then quantified by fluorometry.
(§2) Briefly, the compounds were first tested at 2 concentrations (10 uM and 100 uM final) to determine if there is a hit. […] Each condition was tested in duplicates. […] For some samples, a smaller range of concentrations was tested depending on the % Inhibition results at 10 uM and 100 uM. Results were summarized in Tables 2, 3, and 4 herein after. Table 2 represents the IC50 values (uM) of the test compounds as inhibitors of the activity of the various caspases.
(§3) (*) RFU (no inhibitor control)—RFU (compound at a specific concentration)
(§4) RFU (no inhibitor control)

Caspase-9 = target: T2, Caspase-9 (Homo sapiens, UniProt P55211); assay: Caspase-9 inhibitor screening assay (BioVision kit, LEHD-AFC); conditions: for inhibition at 10 µM: read-out: % Inhibition at 10 uM Casp9; for inhibition at 100 µM: read-out: % Inhibition at 100 uM Casp9
T2 construct: purchased BioVision K159-100
T2 sequence (P55211 1-315 limits assumed): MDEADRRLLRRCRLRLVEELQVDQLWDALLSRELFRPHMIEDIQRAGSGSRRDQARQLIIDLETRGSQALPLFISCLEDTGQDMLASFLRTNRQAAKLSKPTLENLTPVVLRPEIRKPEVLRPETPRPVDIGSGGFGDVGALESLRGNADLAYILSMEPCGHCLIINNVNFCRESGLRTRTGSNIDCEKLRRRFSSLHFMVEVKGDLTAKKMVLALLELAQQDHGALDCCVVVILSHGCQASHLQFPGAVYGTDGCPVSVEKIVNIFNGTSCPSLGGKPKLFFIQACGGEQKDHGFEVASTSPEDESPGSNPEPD
T2 sequence (P55211 331-416 limits assumed): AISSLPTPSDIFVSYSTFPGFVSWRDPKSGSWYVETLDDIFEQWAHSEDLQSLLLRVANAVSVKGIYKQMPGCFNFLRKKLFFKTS
Procedure: as §1, §2, §3, §4

Caspase-7 = target: T3, Caspase-7 (Homo sapiens, UniProt P55210); assay: Caspase-7 inhibitor screening assay (BioVision kit, DEVD-AFC); conditions: for inhibition at 10 µM: read-out: % Inhibition at 10 uM Casp7; for inhibition at 100 µM: read-out: % Inhibition at 100 uM Casp7
T3 construct: mixing the compounds with the respective active caspases; purchased BioVision K157-100
T3 sequence (P55210 24-198 limits assumed): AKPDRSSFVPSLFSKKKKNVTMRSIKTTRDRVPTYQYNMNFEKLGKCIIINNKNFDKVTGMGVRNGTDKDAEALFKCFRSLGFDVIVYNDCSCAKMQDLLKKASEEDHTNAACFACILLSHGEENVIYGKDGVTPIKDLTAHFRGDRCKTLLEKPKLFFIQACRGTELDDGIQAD
T3 sequence (P55210 207-303 limits assumed): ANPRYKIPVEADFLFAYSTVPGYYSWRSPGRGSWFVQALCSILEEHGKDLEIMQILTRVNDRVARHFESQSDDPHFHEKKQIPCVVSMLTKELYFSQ
Procedure: as §1, §2, §3, §4

Caspase-6 = target: T4, Caspase-6 (Homo sapiens, UniProt P55212); assay: Caspase-6 inhibitor screening assay (BioVision kit, VEID-AFC); conditions: for inhibition at 10 µM: read-out: % Inhibition at 10 uM Casp6; for inhibition at 100 µM: read-out: % Inhibition at 100 uM Casp6; for pIC50: read-out: IC50 Casp6
T4 construct: mixing the compounds with the respective active caspases; purchased BioVision K156-100
T4 sequence (P55212 24-179 limits assumed): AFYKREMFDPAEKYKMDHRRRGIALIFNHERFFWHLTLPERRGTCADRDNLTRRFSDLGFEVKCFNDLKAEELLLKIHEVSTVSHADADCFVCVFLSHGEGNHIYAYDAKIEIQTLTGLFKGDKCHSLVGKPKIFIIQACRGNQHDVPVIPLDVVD
T4 sequence (P55212 194-293 limits assumed): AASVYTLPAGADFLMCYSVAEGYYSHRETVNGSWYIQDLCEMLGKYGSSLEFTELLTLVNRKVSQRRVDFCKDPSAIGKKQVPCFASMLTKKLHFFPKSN
Procedure: as §1, §2, §3, §4

Caspase-4 = target: T5, Caspase-4 (Homo sapiens, UniProt P49662); assay: Caspase-4 inhibitor screening assay (BioVision kit, LEVD-AFC); conditions: for inhibition at 10 µM: read-out: % Inhibition at 10 uM Casp4; for inhibition at 100 µM: read-out: % Inhibition at 100 uM Casp4
T5 construct: mixing the compounds with the respective active caspases; purchased BioVision K154-100
T5 sequence (P49662 81-270 limits assumed): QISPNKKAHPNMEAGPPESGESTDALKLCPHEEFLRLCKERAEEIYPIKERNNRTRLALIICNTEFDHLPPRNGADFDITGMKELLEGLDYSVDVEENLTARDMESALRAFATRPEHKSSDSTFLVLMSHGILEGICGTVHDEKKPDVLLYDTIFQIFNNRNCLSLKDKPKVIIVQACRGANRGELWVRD
T5 sequence (P49662 290-377 limits assumed): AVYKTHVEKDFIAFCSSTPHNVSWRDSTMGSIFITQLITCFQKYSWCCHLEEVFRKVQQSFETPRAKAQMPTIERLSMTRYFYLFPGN
Procedure: as §1, §2, §3, §4

Caspase-2 = target: T6, Caspase-2 (Homo sapiens, UniProt P42575); assay: Caspase-2 inhibitor screening assay (BioVision kit, VDVAD-AFC); conditions: for inhibition at 10 µM: read-out: % Inhibition at 10 uM Casp2; for inhibition at 100 µM: read-out: % Inhibition at 100 uM Casp2; for pIC50: read-out: IC50 Casp2
T6 construct: mixing the compounds with the respective active caspases; purchased BioVision K152-100
T6 sequence (P42575 170-325 limits assumed): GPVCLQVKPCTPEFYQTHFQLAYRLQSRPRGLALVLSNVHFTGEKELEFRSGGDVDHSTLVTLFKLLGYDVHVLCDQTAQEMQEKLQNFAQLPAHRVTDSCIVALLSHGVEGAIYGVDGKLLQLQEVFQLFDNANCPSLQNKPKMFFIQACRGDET
T6 sequence (P42575 334-452 limits assumed): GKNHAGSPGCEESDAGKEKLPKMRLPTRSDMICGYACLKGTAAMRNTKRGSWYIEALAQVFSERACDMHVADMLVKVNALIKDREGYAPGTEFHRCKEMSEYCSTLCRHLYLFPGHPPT
Procedure: as §1, §2, §3, §4

[1] = read-out: potency (IC50) against caspase-10
[2] = read-out: potency (IC50) against caspase-9

inhibition at 10 µM (Caspase-10)	inhibition at 100 µM (Caspase-10; 100 uM)	pIC50 (Caspase-10; read-out: IC50 Casp10)	inhibition at 10 µM (Caspase-9)	inhibition at 100 µM (Caspase-9; 100 uM)	pIC50 (Caspase-9; read-out: IC50 Casp9)	inhibition at 10 µM (Caspase-7)	inhibition at 100 µM (Caspase-7; 100 uM)	pIC50 (Caspase-7; read-out: IC50 Casp7)	inhibition at 10 µM (Caspase-6)	inhibition at 100 µM (Caspase-6)	pIC50 (Caspase-6)	inhibition at 10 µM (Caspase-4)	inhibition at 100 µM (Caspase-4)	pIC50 (Caspase-4; read-out: IC50 Casp4)	inhibition at 10 µM (Caspase-2)	inhibition at 100 µM (Caspase-2)	pIC50 (Caspase-2)	pIC50 (Caspase-10; [1])	pIC50 (Caspase-9; [2])	Structure (SMILES)	also measured
27%	90%	4.74	24%	73%	4.33	0%	0%	< 4.00	2%	1%	< 4.00	88%	100%	6.20	3%	5%	< 4.00	–	–	CC(C)(C)[C@H](NC(=O)c1ccc2ncccc2n1)C(=O)N1CCCC1C(=O)N[C@H](/C=C/S(C)(=O)=O)CC(=O)O (stereo in doubt) [Compound 8, (1,5-Naphthyridine-2-carbonyl)-t-Leu-Pro-Asp methyl vinyl sulfone]	–
65%	98%	5.33	76%	98%	5.49	3%	73%	4.27	0%	0%	< 4.00	91%	100%	5.72	3%	6%	< 4.00	–	–	CC(C)(C)[C@H](NC(=O)c1ccc2ncccc2c1)C(=O)N1CCCC1C(=O)N[C@H](/C=C/S(C)(=O)=O)CC(=O)O (stereo in doubt) [Compound 10, Quinoline-6-carbonyl-t-Leu-Pro-Asp methyl vinyl sulfone]	–
81%	100%	5.57	77%	99%	5.64	13%	91%	4.61	3%	30%	< 4.00	100%	100%	7.05	1%	10%	< 4.00	5.57	5.64	CC(C)(C)[C@H](NC(=O)c1ccc(N)c(Cl)c1)C(=O)N1CCCC1C(=O)N[C@H](/C=C/S(C)(=O)=O)CC(=O)O (stereo in doubt) [Compound 14, 4-amino-3-chlorobenzene carbonyl-t-Leu-Pro-Asp methyl vinyl sulfone]	pIC50 (Caspase-4; read-out: potency (IC50) against caspase-4): 7.06
99%	100%	6.80	95%	100%	6.18	99%	100%	6.42	0%	7%	< 4.00	88%	100%	5.49	70%	96%	5.36	6.79	6.18	CC(C)(C)[C@H](NC(=O)[C@H](CC(=O)O)NC(=O)OCc1ccccc1)C(=O)N1CCCC1C(=O)N[C@H](/C=C/S(C)(=O)=O)CC(=O)O (stereo in doubt) [Compound 26, Z-Asp-t-Leu-Pro-Asp-methyl vinyl sulfone]	pIC50 (Caspase-7; read-out: potency (IC50) against caspase-7): 6.42
82%	99%	5.61	54%	93%	5.04	87%	99%	5.60	2%	4%	< 4.00	73%	100%	5.28	22%	79%	4.52	–	–	CS(=O)(=O)/C=C/[C@H](CC(=O)O)NC(=O)C1CCCN1C(=O)[C@@H](NC(=O)[C@H](CC(=O)O)NC(=O)OCc1ccccc1)C1CC1 (stereo in doubt) [Compound 28, Z-Asp-Cyclopropylglycine-Pro-Asp-methyl vinyl sulfone]	–
0%	48%	< 4.00	16%	66%	4.29	3%	60%	4.19	1%	19%	< 4.00	0%	6%	< 4.00	0%	0%	< 4.00	–	–	CC(C)[C@H](NC(=O)OCc1ccccc1)C(=O)N[C@H](/C=C(\Cl)S(C)(=O)=O)CC(=O)O [Compound 2, Cbz-Val-Asp achlorovinyl methyl vinyl sulfone]	% Inhibition at 100 uM Casp10 (Caspase-10; 100 uM): 31%; % Inhibition at 100 uM Casp9 (Caspase-9; 100 uM): 70%; % Inhibition at 100 uM Casp7 (Caspase-7; 100 uM): 72%

Source: patent US10975119B2, “Selective cysteine protease inhibitors and uses thereof” (Genesis Technologies Limited, priority 2011, dated 2021)
